The test system of assay [1] is Ca-dependent chloride channels. In words: patch clamp, perforated whole-cell configuration, chloride currents in CF bronchial epithelial cells. The class given is cell-based. The protocol:
Our experiments were carried out on homozygous CFBE cells leading the F508del/F508 del mutation and on IB3-1 cells (immortalized cell line of bronchial epithelium cystic fibrosis cells, which bring F508del/W1282X mutation).
(§1) The chloride currents through the Ca-dependent chloride channels were measured using the patch clamp technique in perforated whole-cell configuration. The whole-cell configuration was obtained not by breaking the membrane below the electrode, but thanks to the action of an ionophore (gramicidin, 10 μg/ml) which, forming pores through the membrane, guarantees electrical continuity between the solution for the electrode and the cytoplasm, while maintaining the cellular integrity. Thus, cytoplasmic components that might be important to the maintenance of channel activity are not removed after dialysis of the cytoplasm with the solution contained in the electrode. […]
The solution for the electrode contained (mM): 145 KCl, 1 MgCl2, 10 HEPES, pH 7,25. […] The bath solution was hypertonic (measured osmolarity 337 mOsm) with respect to that of the electrode to inhibit the currents activated by swelling, present in the cells used also in isosmolarity conditions of the bath solution (as noted in previously carried out whole-cell experiments). […]
For orientation: Patch clamp records ionic current or voltage across a cell membrane.

Assay [2] concerns the target T1, CFTR channel (Homo sapiens, UniProt P13569, DEL508-508).
T1 construct: having recorded the I/V in cells treated with tamoxifen for 24 hours; endogenous in cells; host or cells: CFBE (F508del/F508del) or IB3-1 (F508del/W1282X) cells
Description: patch clamp chloride currents in tamoxifen-treated cells with CFTR inhibitor. The class given is cell-based. Conditions: cells treated with tamoxifen 5 μM for 24 hours, then tamoxifen + CFTR inh (FIG. 3). The protocol:
as §1
The solution for the electrode contained (mM): 145 KCl, 1 MgCl2, 10 HEPES, pH 7,25. […] The bath solution was hypertonic (measured osmolarity 337 mOsm) with respect to that of the electrode to inhibit the currents activated by swelling, present in the cells used also in isosmolarity conditions of the bath solution (as noted in previously carried out whole-cell experiments).
Finally, in order to evaluate a possible action of tamoxifen on the CFTR channel, having recorded the I/V in cells treated with tamoxifen for 24 hours, the replacement of the solution with one containing tamoxifen and CFTR inh (specific inhibitor of CFTR) (FIG. 3) was carried out.

T1 sequence (P13569 with tags, fused parts or gaps DEL508-508): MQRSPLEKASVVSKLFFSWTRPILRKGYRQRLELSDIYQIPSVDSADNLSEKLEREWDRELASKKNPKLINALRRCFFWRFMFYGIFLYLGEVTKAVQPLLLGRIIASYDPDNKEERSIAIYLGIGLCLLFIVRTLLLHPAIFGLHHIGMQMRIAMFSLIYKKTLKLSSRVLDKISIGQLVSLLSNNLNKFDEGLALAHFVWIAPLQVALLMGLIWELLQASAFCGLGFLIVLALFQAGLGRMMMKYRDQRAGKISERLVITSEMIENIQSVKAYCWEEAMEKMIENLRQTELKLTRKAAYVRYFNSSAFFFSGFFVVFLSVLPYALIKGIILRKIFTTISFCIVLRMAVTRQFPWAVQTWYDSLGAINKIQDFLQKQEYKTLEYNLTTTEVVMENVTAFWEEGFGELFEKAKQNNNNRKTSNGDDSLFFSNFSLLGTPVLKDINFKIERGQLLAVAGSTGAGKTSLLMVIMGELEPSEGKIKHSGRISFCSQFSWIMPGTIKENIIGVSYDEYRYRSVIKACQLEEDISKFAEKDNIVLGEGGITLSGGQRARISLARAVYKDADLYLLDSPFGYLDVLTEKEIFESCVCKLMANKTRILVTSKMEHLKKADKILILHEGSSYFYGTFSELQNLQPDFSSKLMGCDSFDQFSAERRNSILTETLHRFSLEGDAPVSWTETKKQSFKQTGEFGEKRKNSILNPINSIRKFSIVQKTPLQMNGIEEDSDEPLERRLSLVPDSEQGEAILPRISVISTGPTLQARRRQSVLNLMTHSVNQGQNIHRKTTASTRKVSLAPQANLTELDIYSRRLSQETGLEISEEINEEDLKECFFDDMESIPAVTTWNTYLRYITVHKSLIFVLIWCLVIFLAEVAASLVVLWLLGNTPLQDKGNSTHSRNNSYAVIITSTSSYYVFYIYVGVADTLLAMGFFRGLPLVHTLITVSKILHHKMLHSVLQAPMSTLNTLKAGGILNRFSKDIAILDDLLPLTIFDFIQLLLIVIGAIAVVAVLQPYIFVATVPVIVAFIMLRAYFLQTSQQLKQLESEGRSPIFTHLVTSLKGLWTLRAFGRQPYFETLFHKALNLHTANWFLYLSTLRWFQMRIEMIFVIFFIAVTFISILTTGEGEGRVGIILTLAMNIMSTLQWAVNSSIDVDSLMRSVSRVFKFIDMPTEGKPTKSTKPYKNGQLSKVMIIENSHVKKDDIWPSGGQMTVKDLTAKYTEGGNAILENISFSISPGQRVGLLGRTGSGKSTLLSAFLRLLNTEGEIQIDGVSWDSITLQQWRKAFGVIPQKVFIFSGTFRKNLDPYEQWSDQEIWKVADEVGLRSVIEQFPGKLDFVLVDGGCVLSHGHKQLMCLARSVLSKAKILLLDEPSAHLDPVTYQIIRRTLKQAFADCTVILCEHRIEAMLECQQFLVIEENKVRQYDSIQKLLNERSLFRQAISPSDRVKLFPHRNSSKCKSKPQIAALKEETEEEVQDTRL

For the molecule `CC/C(=C(\c1ccccc1)c1ccc(OCCN(C)C)cc1)c1ccccc1` [tamoxifen], the “current density compared to control conditions” value in assay [1] (CFBE or IB3-1 cells incubated 40 minutes with tamoxifen 5 μM (FIG. 1)) was “significantly increased”. In assay [1] (cells incubated with 5 μM tamoxifen for 24 hours (FIG. 2)), the “effect on Ca-dependent chloride currents over time” value is given as “remains almost unchanged over time”. In assay [2], the “effect on chloride currents in the presence of the inhibitor of CFTR” value is “does not change significantly”.

(Values after US11191738B2, “Use of tamoxifen for the treatment of cystic fibrosis in patients of both sexes” (GB PHARMA S.R.L., priority 2016, dated 2021).)
